Source: US20110263539A1, “SHIP 1 MODULATOR COMPOUNDS” (THE UNIVERSITY OF BRITISH COLUMBIA, priority 2006, published 2011)

Experiments:
SHIP C2 domain = experiment: Protein lipid overlay assay; format: binding; details: 4 μM Compound 100
Method: Protein lipid overlay (PLO) assays were performed essentially as described with minor modifications. Lyophilized phosphatidylinositol-3,4-bisphosphate diC16 (PIP2, Echelon Biosciences, Salt Lake City, Utah) was reconstituted in a 2:1.8 solution of methanol and water. PVDF membranes (Millipore, Missisauga, Ont) were initially wetted in methanol for 1 minute, and washed 3×5 min with water, and gently agitated in TBST buffer (20 mM Tris pH 7.5, 0.15 M NaCl (TBS) with 0.05% Tween 20) at 23° C. overnight. Treated membranes were air-dried and dilutions of reconstituted lipids were spotted in 1 μl aliquots to give the indicated amount of PIP2 per membrane spot. Membranes were dried completely and blocked with blocking buffer (3% BSA in TBS with 0.05% NaN3) for 1 h at 23° C. Purified, recombinant C2 domain was diluted into blocking buffer (5 μM final) and treated with 4 μM Compound 100 or EtOH control for 30 min at 23° C. prior to overnight incubation with the PIP2 spotted membranes. […] After washing, bound proteins were detected and quantified on a Li-Cor Odyssey scanner (Lincoln, Nebr.).
Isolated recombinant, His6-tagged C2 domain was expressed and its PI-3,4-P2 binding ability was determined using protein lipid overlay assays. Purified C2 domain was incubated with membrane strips spotted with PI-3,4-P2 and bound protein detected using an anti-His6 antibody. […]

wild-type SHIP = experiment: Scintillation proximity assay, wild-type and ΔC2 SHIP; format: binding; details: [3H]-Compound 100, SPA beads
Method: Compound 100 was radiolabelled with tritium by GE Healthcare (Piscataway, N.J.) to a specific activity of 42 Ci/mmole. Copper chelate (His-Tag) YSi SPA Scintillation Beads (GE Healthcare, Piscataway, N.J.) were diluted in 0.25% BSA/TBS to 1.5 mg/mL and recombinant, His6-tagged protein added at the indicated concentrations: wild-type (1 μM), ΔC2 SHIP enzyme (1 pM) or C2 domain (10 nM). Protein was allowed to bind 1 h at 23° C., and 250 μg of beads were aliquoted per well of a 96-well plate. 5 μCi of [^3H]-Compound 100 was added per well, the plate gently agitated for 30 min and the amount of bead associated radioactivity quantified by counting in a Wallac BetaPlate plate scintillation counter.
Isolated recombinant, His6-tagged C2 domain was expressed and its PI-3,4-P2 binding ability was determined using protein lipid overlay assays. Purified C2 domain was incubated with membrane strips spotted with PI-3,4-P2 and bound protein detected using an anti-His6 antibody. As shown in FIG. 11C the C2 domain bound PI-3,4-P2 and this binding was inhibited by Compound 100, consistent with both Compound 100 and PI-3,4-P2 interacting with the C2 domain at a common binding site.

[1] = Initial toxicology studies; format: in vivo; details: data not shown
Description: A novel paradigm for inhibiting PI3K signaling through activation of the phosphatases that negatively regulate this pathway is provided. SHIP is a particularly good target for immune/hematopoietic disorders because of its restricted expression to hematopoietic cells. Because the relative activity of phosphatases present in a cell will influence the efficacy of kinase inhibitors, as discussed by Knight and Shokat, SHIP agonists may also be used to potentiate the activation of PI3K inhibitors and promote tissue targeting of PI3K inhibitors to the ematopoietic/immune cell compartment.

J774.1a macrophage cells = experiment: Macrophage TNF-α NO assay (Assay 3); format: cell-based; details: 10 μg/ml test compound, LPS, 24 hr, Griess reagent; note: key: a ‘+’ indicates a positive result for desired activity; a ‘−’ indicates a negative result for desired activity
Method: Assay 3) Macrophage TNF-α NO assay. J774.1a macrophage cells were treated with 10 μg/ml of test compound dissolved in solvent for 40 minutes prior to the addition of LPS. Culture supernatants were collected after 24 hr. for determination of NO concentration using the Griess reagent.

SHIP enzyme = experiment: In vitro SHIP enzyme assay (Assay 1); format: biochemical; for Assay Number 1: SHIP enzyme assay: key: a ‘+’ indicates a positive result for desired activity; a ‘−’ indicates a negative result for desired activity
Method: Assay 1) In vitro testing in a SHIP enzyme assay. Test compounds were dissolved in a suitable solvent (e.g. EtOH, DMSO and others) and diluted into aqueous buffer (20 mM Tris HCl, pH 7.5 and 10 mM MgCl2). SHIP enzyme assays were performed in 96-well microtitre plates with 10 ng of enzyme/well in a total volume of 25 μL of 20 mM Tris HCl, pH 7.5 and 10 mM MgCl2. SHIP enzyme was incubated with test extracts (provided in solvent) or vehicle for 15 min at 23° C. before the addition of 100 μM inositol-1,3,4,5-tetrakisphosphate (Echelon Biosciences Inc, Salt Lake City, Utah). After 20 min at 37° C. and the amount of inorganic phosphate released assessed by the addition of Malachite Green reagent and absorbance measurement at 650 nm.
For in vitro testing in the SHIP enzyme assay, AQX-016A and Compound 100 were dissolved in EtOH and diluted into aqueous buffer (20 mM Tris HCl, pH 7.5 and 10 mM MgCl2). The actual concentration of drug in solution was determined by optical density measurement at 280 nm (λmax for both compounds) after high speed centrifugation at 14 000×g for 30 min to remove precipitated drug. For testing on cells, compounds were formulated in the carrier cyclodextrin (Cyclodex Technologies, High Springs, Fla.) at 6 mM (2 mg/mL). For oral administration to animals, compounds were dissolved in 100% cremophore EL (Sigma-Aldrich Canada, Oakville, Ontario) at 150 mM (50 mg/mL) prior to dilution to 6 mM in phosphate buffer saline. However, while these compounds caged in cyclodextrin or formulated in cremophore EL micelles were very soluble in aqueous solution, they could not be used in the SHIP enzyme assays because of interference from both cyclodextrin and cremophore EL.
N-terminal His6 tagged SHIP enzyme was expressed in mammalian 293T cells by transient transfection with pME18S-His-SHIP plasmid and purified to >95% homogeneity by Ni-chelating bead chromatography (Qiagen, Mississauga, Ontario). Recombinant SHIP C2 domain (amino acid residues 725 to 863) was expressed in E. coli transformed with a pET28C expression vector constructed as described below. Recombinant protein purified from the cell lysates by Nichelating bead chromatography was >95% pure.
In vitro SHIP enzyme assay. SHIP enzyme assays were performed in 96-well microtitre plates with 10 ng of enzyme/well in a total volume of 25 μL of 20 mM Tris HCl, pH 7.5 and 10 Mm MgCl2. SHIP enzyme was incubated with test extracts (provided in DMSO) or vehicle for 15 min at 23° C. before the addition of 100 μM inositol-1,3,4,5-tetrakisphosphate (Echelon Biosciences Inc, Salt Lake City, Utah). After 20 min at 37° C. and the amount of inorganic phosphate released assessed by the addition of Malachite Green reagent and absorbance measurement at 650 nm. SHIP2 enzyme was purchased from Echelon Biosciences (Salt Lake City, Utah) and an equivalent amount of inositol phosphatase activity was used in the in vitro enzyme assay. Enzyme data are expressed as the mean of triplicates +/−SEM. Experiments were performed at least 3 times. (FIGS. 7A and 7B).

binding of C2 domain to PI-3,4-P2 (SHIP C2 domain): inhibited
Assay Number 1: SHIP enzyme assay (SHIP enzyme; 100 μM inositol-1,3,4,5-tetrakisphosphate, Malachite Green): +
SHIP enzyme activity (SHIP enzyme; wild-type SHIP): enhanced SHIP enzyme activity in vitro
Compound: Cc1cc(O)cc2c1[C@]1(C)CCC3C(C)(C)CCC[C@]3(C)[C@H]1C2 (stereo partly drawn) [Compound 100]
binding to wild-type SHIP vs SHIP lacking C2 domain (wild-type SHIP): bound to wild-type SHIP but not to SHIP lacking its C2 domain
peripheral blood cell counts or bone marrow progenitor numbers [1]: do not significantly affect
Assay Number 3: Macrophage NO (J774.1a macrophage cells): +
